According to ChEMBL document CHEMBL3351293, “Design, synthesis and in vitro evaluation of novel uni- and bivalent ligands for the cannabinoid receptor type 1 with variation of spacer length and structure” (Bioorg Med Chem Lett, 2014):

Legend:
Cannabinoid receptor 2 = Cannabinoid receptor 2 (Homo sapiens, UniProt P34972); assay: Displacement of [3H] CP-55,940 from human CB2 receptor expressed in HEK cells at 10 uM after 3 hrs by scintillation counting; type: cell-based; details: for inhibition: HEK293
Cannabinoid receptor 1 [1] = molecular target: T1, Cannabinoid receptor 1 (Homo sapiens, UniProt P21554); assay: Inverse agonist activity at human CB1 receptor expressed in Sf9 cells coexpressing Gbeta1gamma2 and RSG4 assessed as degradation of [gamma-33P]GTP after 20 mins by steady-state GTPase assay; type: cell-based
Cannabinoid receptor 1 [2] = molecular target: T1, Cannabinoid receptor 1; details: Sf9, at 30 µM
Description: Inverse agonist activity at human CB1 receptor expressed in Sf9 cells coexpressing Gbeta1gamma2 and RSG4 assessed as degradation of [gamma-33P]GTP at 30 uM after 20 mins by steady-state GTPase assay relative to control

Cannabinoid receptor 1 [3] = molecular target: T1, Cannabinoid receptor 1; details: Sf9, 30 uM
Description: Agonist activity at human CB1 receptor expressed in Sf9 cells coexpressing Gbeta1gamma2 and RSG4 assessed as degradation of [gamma-33P]GTP at 30 uM after 20 mins by steady-state GTPase assay relative to control

Cannabinoid receptor 2, sequence (P34972 whole entry): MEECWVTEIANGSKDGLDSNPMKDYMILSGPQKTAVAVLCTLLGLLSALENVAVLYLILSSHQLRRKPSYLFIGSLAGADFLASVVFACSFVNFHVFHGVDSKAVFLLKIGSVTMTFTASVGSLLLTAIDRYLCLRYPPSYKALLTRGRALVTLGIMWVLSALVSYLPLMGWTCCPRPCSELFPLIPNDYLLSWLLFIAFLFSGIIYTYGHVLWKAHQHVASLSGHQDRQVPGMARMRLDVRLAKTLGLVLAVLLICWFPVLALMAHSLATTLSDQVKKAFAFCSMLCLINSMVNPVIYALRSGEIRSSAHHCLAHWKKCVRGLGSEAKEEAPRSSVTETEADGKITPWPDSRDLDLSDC
T1 sequence (P21554 whole entry): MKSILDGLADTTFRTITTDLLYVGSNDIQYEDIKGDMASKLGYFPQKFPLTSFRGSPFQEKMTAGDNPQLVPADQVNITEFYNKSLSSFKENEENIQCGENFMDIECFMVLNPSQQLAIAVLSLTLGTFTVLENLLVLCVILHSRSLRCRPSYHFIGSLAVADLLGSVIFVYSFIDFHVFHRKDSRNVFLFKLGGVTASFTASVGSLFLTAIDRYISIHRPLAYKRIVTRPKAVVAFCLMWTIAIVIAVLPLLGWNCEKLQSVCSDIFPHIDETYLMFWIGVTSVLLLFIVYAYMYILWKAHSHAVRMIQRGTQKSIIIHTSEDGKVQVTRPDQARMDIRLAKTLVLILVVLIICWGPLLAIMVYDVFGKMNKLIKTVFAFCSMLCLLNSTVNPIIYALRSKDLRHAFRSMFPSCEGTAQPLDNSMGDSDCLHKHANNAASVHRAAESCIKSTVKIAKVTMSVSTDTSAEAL

Cc1c(C(=O)NCCCCCCCCNC(=O)[C@H]2CC[C@@H](C(=O)NCCCCCCCCNC(=O)c3nn(-c4ccc(Cl)cc4Cl)c(-c4ccc(Cl)cc4)c3C)CC2)nn(-c2ccc(Cl)cc2Cl)c1-c1ccc(Cl)cc1 gave an inhibition (Cannabinoid receptor 2) of 27.3%, an EC50 (Cannabinoid receptor 1 [1]) of 8.71 µM and an Emax (Cannabinoid receptor 1 [2]) of 62.4%.
Cc1c(C(=O)NCCCCCCCNCCCCCCCNC(=O)c2nn(-c3ccc(Cl)cc3Cl)c(-c3ccc(Cl)cc3)c2C)nn(-c2ccc(Cl)cc2Cl)c1-c1ccc(Cl)cc1 gave an inhibition (Cannabinoid receptor 2) of 34.4%, an EC50 (Cannabinoid receptor 1 [1]) of 0.871 µM and an Emax (Cannabinoid receptor 1 [2]) of 89.2%.
Cc1c(C(=O)NCCCCCCCCNC(=O)c2cccc(C(=O)NCCCCCCCCNC(=O)c3nn(-c4ccc(Cl)cc4Cl)c(-c4ccc(Cl)cc4)c3C)c2)nn(-c2ccc(Cl)cc2Cl)c1-c1ccc(Cl)cc1 gave an inhibition (Cannabinoid receptor 2) of 29.1%, an EC50 (Cannabinoid receptor 1 [1]) of 13.5 µM and an Emax (Cannabinoid receptor 1 [2]) of 59.1%.
Cc1c(C(=O)NCCCCCCCCNC(=O)c2ccccc2)nn(-c2ccc(Cl)cc2Cl)c1-c1ccc(Cl)cc1 gave an inhibition (Cannabinoid receptor 2) of 21.4%, an EC50 (Cannabinoid receptor 1 [1]) of 0.501 µM and an Emax (Cannabinoid receptor 1 [2]) of 80.2%.
Cc1c(C(=O)NCCCCNCc2cccc(CNCCCCNC(=O)c3nn(-c4ccc(Cl)cc4Cl)c(-c4ccc(Cl)cc4)c3C)c2)nn(-c2ccc(Cl)cc2Cl)c1-c1ccc(Cl)cc1 showed an inhibition (Cannabinoid receptor 2) of 7%, an EC50 (Cannabinoid receptor 1 [1]) of 8.85 µM and an Emax (Cannabinoid receptor 1 [2]) of 76.8%.
With Cc1c(C(=O)NCCCCCCCN(CCCCCCCNC(=O)c2nn(-c3ccc(Cl)cc3Cl)c(-c3ccc(Cl)cc3)c2C)Cc2ccccc2)nn(-c2ccc(Cl)cc2Cl)c1-c1ccc(Cl)cc1 the inhibition (Cannabinoid receptor 2) was 22.6%, the EC50 (Cannabinoid receptor 1 [1]) was 3.85 µM and the Emax (Cannabinoid receptor 1 [2]) was 67.5%.
For Cc1c(C(=O)NCCCCCCCCNC(=O)c2ccc(C(=O)NCCCCCCCCNC(=O)c3nn(-c4ccc(Cl)cc4Cl)c(-c4ccc(Cl)cc4)c3C)cc2)nn(-c2ccc(Cl)cc2Cl)c1-c1ccc(Cl)cc1, the inhibition (Cannabinoid receptor 2) was 9.7%, the EC50 (Cannabinoid receptor 1 [1]) was 40.7 µM and the Emax (Cannabinoid receptor 1 [2]) was 29.3%.
With Cc1c(C(=O)NN2CCCCC2)nn(-c2ccc(Cl)cc2Cl)c1-c1ccc(Cl)cc1 the inhibition (Cannabinoid receptor 2) was 9%.
Cc1c(C(=O)NCCCCNC(=O)C23CC4CC(C2)CC(C(=O)NCCCCNC(=O)c2nn(-c5ccc(Cl)cc5Cl)c(-c5ccc(Cl)cc5)c2C)(C4)C3)nn(-c2ccc(Cl)cc2Cl)c1-c1ccc(Cl)cc1 was tested, and the inhibition (Cannabinoid receptor 2) was 15.8%, the EC50 (Cannabinoid receptor 1 [1]) was 16.2 µM and the Emax (Cannabinoid receptor 1 [2]) was 66.4%.
Compound Cc1c(C(=O)NCCCCNC(=O)[C@H]2CC[C@H](C(=O)NCCCCNC(=O)c3nn(-c4ccc(Cl)cc4Cl)c(-c4ccc(Cl)cc4)c3C)CC2)nn(-c2ccc(Cl)cc2Cl)c1-c1ccc(Cl)cc1 has an inhibition (Cannabinoid receptor 2) of 17.6%.
Work on Cc1c(C(=O)NCCCCCCCCNC(=O)[C@@H]2CCC[C@@H](C(=O)NCCCCCCCCNC(=O)c3nn(-c4ccc(Cl)cc4Cl)c(-c4ccc(Cl)cc4)c3C)C2)nn(-c2ccc(Cl)cc2Cl)c1-c1ccc(Cl)cc1 yielded an inhibition (Cannabinoid receptor 2) of 18.8%, an EC50 (Cannabinoid receptor 1 [1]) of 7.6 µM and an Emax (Cannabinoid receptor 1 [2]) of 45.5%.
With Cc1c(C(=O)NCCCCCCCCNC(=O)[C@H]2CC[C@H](C(=O)NCCCCCCCCNC(=O)c3nn(-c4ccc(Cl)cc4Cl)c(-c4ccc(Cl)cc4)c3C)CC2)nn(-c2ccc(Cl)cc2Cl)c1-c1ccc(Cl)cc1 the inhibition (Cannabinoid receptor 2) was 14.5%, the EC50 (Cannabinoid receptor 1 [1]) was 9.55 µM and the Emax (Cannabinoid receptor 1 [2]) was 38.8%.
With Cc1c(C(=O)NCCCCNC(=O)[C@@H]2CCC[C@H](C(=O)NCCCCNC(=O)c3nn(-c4ccc(Cl)cc4Cl)c(-c4ccc(Cl)cc4)c3C)C2)nn(-c2ccc(Cl)cc2Cl)c1-c1ccc(Cl)cc1 the inhibition (Cannabinoid receptor 2) was 19.8%, the EC50 (Cannabinoid receptor 1 [1]) was 24.3 µM and the Emax (Cannabinoid receptor 1 [2]) was 38.2%.
Cc1c(C(=O)NCCCCCCNC(=O)c2cccc(C(=O)NCCNC(=O)c3nn(-c4ccc(Cl)cc4Cl)c(-c4ccc(Cl)cc4)c3C)c2)nn(-c2ccc(Cl)cc2Cl)c1-c1ccc(Cl)cc1 showed an inhibition (Cannabinoid receptor 2) of 3.2% and an Emax (Cannabinoid receptor 1 [2]) of 43.6%.
Work on Cc1c(C(=O)NCCCCNC(=O)[C@@H]2CCC[C@@H](C(=O)NCCCCNC(=O)c3nn(-c4ccc(Cl)cc4Cl)c(-c4ccc(Cl)cc4)c3C)C2)nn(-c2ccc(Cl)cc2Cl)c1-c1ccc(Cl)cc1 (relative stereo) yielded an inhibition (Cannabinoid receptor 2) of 41.1%, an EC50 (Cannabinoid receptor 1 [1]) of 8.55 µM and an Emax (Cannabinoid receptor 1 [2]) of 63%.
Compound Cc1c(C(=O)NCCCCNC(=O)[C@H]2CC[C@@H](C(=O)NCCCCNC(=O)c3nn(-c4ccc(Cl)cc4Cl)c(-c4ccc(Cl)cc4)c3C)CC2)nn(-c2ccc(Cl)cc2Cl)c1-c1ccc(Cl)cc1 has an inhibition (Cannabinoid receptor 2) of 25.9%, an EC50 (Cannabinoid receptor 1 [1]) of 9.66 µM and an Emax (Cannabinoid receptor 1 [2]) of 61.9%.
Compound Cc1c(C(=O)NCCCCNC(=O)C2CCCCC2)nn(-c2ccc(Cl)cc2Cl)c1-c1ccc(Cl)cc1 has an inhibition (Cannabinoid receptor 2) of 24.1%, an EC50 (Cannabinoid receptor 1 [1]) of 0.11 µM and an Emax (Cannabinoid receptor 1 [2]) of 91.5%.
Cc1c(C(=O)NCCCCCCCCN)nn(-c2ccc(Cl)cc2Cl)c1-c1ccc(Cl)cc1 was tested, and the inhibition (Cannabinoid receptor 2) was 9.5%, the EC50 (Cannabinoid receptor 1 [1]) was 0.112 µM and the Emax (Cannabinoid receptor 1 [2]) was 92.8%.
Cc1c(C(=O)NCCCCNC(=O)c2ccccc2)nn(-c2ccc(Cl)cc2Cl)c1-c1ccc(Cl)cc1 gave an inhibition (Cannabinoid receptor 2) of 25.8%, an EC50 (Cannabinoid receptor 1 [1]) of 0.776 µM and an Emax (Cannabinoid receptor 1 [2]) of 94%.
In the case of Cc1c(C(=O)NCCCCCCCCNC(=O)[C@@H]2CCC[C@H](C(=O)NCCCCCCCCNC(=O)c3nn(-c4ccc(Cl)cc4Cl)c(-c4ccc(Cl)cc4)c3C)C2)nn(-c2ccc(Cl)cc2Cl)c1-c1ccc(Cl)cc1, the inhibition (Cannabinoid receptor 2) is reported as 10.3%, the EC50 (Cannabinoid receptor 1 [1]) is reported as 3.16 µM and the Emax (Cannabinoid receptor 1 [2]) is reported as 33.6%.
Cc1c(C(=O)NCCCCCCCCNC(=O)[C@H]2CCCC[C@@H]2C(=O)NCCCCCCCCNC(=O)c2nn(-c3ccc(Cl)cc3Cl)c(-c3ccc(Cl)cc3)c2C)nn(-c2ccc(Cl)cc2Cl)c1-c1ccc(Cl)cc1 (relative stereo) gave an inhibition (Cannabinoid receptor 2) of 10.5% and an Emax (Cannabinoid receptor 1 [2]) of 14.3%.
For Cc1c(C(=O)NCCCCNCc2ccc(C(=O)NCCCCNC(=O)c3nn(-c4ccc(Cl)cc4Cl)c(-c4ccc(Cl)cc4)c3C)cc2)nn(-c2ccc(Cl)cc2Cl)c1-c1ccc(Cl)cc1, the inhibition (Cannabinoid receptor 2) was 23%, the EC50 (Cannabinoid receptor 1 [1]) was 1.91 µM and the Emax (Cannabinoid receptor 1 [2]) was 67.4%.
In the case of Cc1c(C(=O)NCCCCNCc2cccc(C(=O)NCCCCNC(=O)c3nn(-c4ccc(Cl)cc4Cl)c(-c4ccc(Cl)cc4)c3C)c2)nn(-c2ccc(Cl)cc2Cl)c1-c1ccc(Cl)cc1, the inhibition (Cannabinoid receptor 2) is reported as 15.3%, the EC50 (Cannabinoid receptor 1 [1]) is reported as 1.62 µM and the Emax (Cannabinoid receptor 1 [2]) is reported as 78.1%.
In the case of Cc1c(C(=O)NCCCCNC(=O)c2cccc(C(=O)NCCCCNC(=O)c3nn(-c4ccc(Cl)cc4Cl)c(-c4ccc(Cl)cc4)c3C)c2)nn(-c2ccc(Cl)cc2Cl)c1-c1ccc(Cl)cc1, the inhibition (Cannabinoid receptor 2) is reported as 0% and the Emax (Cannabinoid receptor 1 [2]) is reported as 19.5%.
Cc1c(C(=O)NCCCCCCCCNCc2ccccc2)nn(-c2ccc(Cl)cc2Cl)c1-c1ccc(Cl)cc1 gave a Ki (Cannabinoid receptor 2) of 31 µM, an inhibition (Cannabinoid receptor 2) of 93.9% and an EC50 (Cannabinoid receptor 1 [1]) of 0.123 µM. The Emax (Cannabinoid receptor 1 [2]) was 93.8%.
Cc1c(C(=O)NCCCCN)nn(-c2ccc(Cl)cc2Cl)c1-c1ccc(Cl)cc1 showed an inhibition (Cannabinoid receptor 2) of 31.8%, an EC50 (Cannabinoid receptor 1 [1]) of 2.82 µM and an Emax (Cannabinoid receptor 1 [2]) of 86.9%.
Work on Cc1c(C(=O)NCCCCNCc2ccc(CNCCCCNC(=O)c3nn(-c4ccc(Cl)cc4Cl)c(-c4ccc(Cl)cc4)c3C)cc2)nn(-c2ccc(Cl)cc2Cl)c1-c1ccc(Cl)cc1 yielded a Ki (Cannabinoid receptor 2) of 2.4 µM, an inhibition (Cannabinoid receptor 2) of 102% and an EC50 (Cannabinoid receptor 1 [1]) of 2.95 µM. For the same compound, the Emax (Cannabinoid receptor 1 [2]) was 93.2%.
Compound CCCCCCC(C)(C)c1ccc([C@@H]2C[C@H](O)CC[C@H]2CCCO)c(O)c1 has an Emax (Cannabinoid receptor 1 [3]) of 67.4%.
For Cc1c(C(=O)NCCCCCCCCNC(=O)C23CC4CC(C2)CC(C(=O)NCCCCCCCCNC(=O)c2nn(-c5ccc(Cl)cc5Cl)c(-c5ccc(Cl)cc5)c2C)(C4)C3)nn(-c2ccc(Cl)cc2Cl)c1-c1ccc(Cl)cc1, the inhibition (Cannabinoid receptor 2) was 4.1%, the EC50 (Cannabinoid receptor 1 [1]) was 7.24 µM and the Emax (Cannabinoid receptor 1 [2]) was 34.7%.
Cc1c(C(=O)NCCCCNC(=O)c2ccc(C(=O)NCCCCNC(=O)c3nn(-c4ccc(Cl)cc4Cl)c(-c4ccc(Cl)cc4)c3C)cc2)nn(-c2ccc(Cl)cc2Cl)c1-c1ccc(Cl)cc1 was tested, and the inhibition (Cannabinoid receptor 2) was 24.3%, the EC50 (Cannabinoid receptor 1 [1]) was 15 µM and the Emax (Cannabinoid receptor 1 [2]) was 50.2%.
With Cc1c(C(=O)NCCCCNC(=O)[C@H]2CCCC[C@@H]2C(=O)NCCCCNC(=O)c2nn(-c3ccc(Cl)cc3Cl)c(-c3ccc(Cl)cc3)c2C)nn(-c2ccc(Cl)cc2Cl)c1-c1ccc(Cl)cc1 (relative stereo) the inhibition (Cannabinoid receptor 2) was 14.6%, the EC50 (Cannabinoid receptor 1 [1]) was 10.5 µM and the Emax (Cannabinoid receptor 1 [2]) was 58.4%.
For Cc1c(C(=O)NN2CCCCC2)nn(-c2ccc(Cl)cc2Cl)c1-c1ccc(I)cc1, the Emax (Cannabinoid receptor 1 [2]) was 100%.
In the case of Cc1c(C(=O)NCCCCNCc2ccccc2)nn(-c2ccc(Cl)cc2Cl)c1-c1ccc(Cl)cc1, the Ki (Cannabinoid receptor 2) is reported as 12.7 µM, the inhibition (Cannabinoid receptor 2) is reported as 85.4% and the EC50 (Cannabinoid receptor 1 [1]) is reported as 0.661 µM. It also gave an Emax (Cannabinoid receptor 1 [2]) of 92.5%.
Compound Cc1c(C(=O)NCCCCCCCCNC(=O)C2CCCCC2)nn(-c2ccc(Cl)cc2Cl)c1-c1ccc(Cl)cc1 has an inhibition (Cannabinoid receptor 2) of 20.2%, an EC50 (Cannabinoid receptor 1 [1]) of 1.1 µM and an Emax (Cannabinoid receptor 1 [2]) of 78.8%.
